Here are results for 10 molecules from US7427620B2, “Azole derivative useful as antifungal agents with reduced interaction with metabolic cytochromes” (Italfarmaco SPA, priority 2003, dated 2008).

In brackets after ≈: the same amount, converted by molar mass. Where two headings read alike, the source gives them in different places. Where only a bound is given, the exact number is not on record here.

The test system of series [1] is Candida albicans. Kind of series: Antifungal activity, liquid phase microdilution (NCCLS M27/M38-P). Format: cell-based. The procedure: (§1) Experiment A: Antifungal Activity of Compounds of the Formula (I)
(§2) The antifungal activity of the compounds of the formula (I) was determined using various strains of yeast and filamentous fungi. […] Table no.
A general note: Dilution methods test growth across graded concentrations, often in twofold steps.

The next series concerns Aspergillus fumigatus. The description is as above. In kind it is cell-based. Further details: IC50 (minimum concentration to bring about 50% inhibition): unit not given here. Conditions: for IC50: Aspergillus fumigatus. The procedure:
as §1, §2

Another series relates to Candida glabrata. The description is as above. Conditions: for IC50 (minimum concentration to bring about 50% inhibition): Candida glabrata strain 02-0902. In kind it is cell-based. As to the method: as §1, §2
Another series concerns Candida parapsilosis. The series is described as above. In kind it is cell-based. Conditions: for IC50 (minimum concentration to bring about 50% inhibition): Candida parapsilosis strain ATCC22019. As to the method: as §1, §2
For another series, the target named is T1, CYP2C9 (Homo sapiens, UniProt P11712).
T1 construct: purchased Gentest
T1 sequence (P11712 whole entry): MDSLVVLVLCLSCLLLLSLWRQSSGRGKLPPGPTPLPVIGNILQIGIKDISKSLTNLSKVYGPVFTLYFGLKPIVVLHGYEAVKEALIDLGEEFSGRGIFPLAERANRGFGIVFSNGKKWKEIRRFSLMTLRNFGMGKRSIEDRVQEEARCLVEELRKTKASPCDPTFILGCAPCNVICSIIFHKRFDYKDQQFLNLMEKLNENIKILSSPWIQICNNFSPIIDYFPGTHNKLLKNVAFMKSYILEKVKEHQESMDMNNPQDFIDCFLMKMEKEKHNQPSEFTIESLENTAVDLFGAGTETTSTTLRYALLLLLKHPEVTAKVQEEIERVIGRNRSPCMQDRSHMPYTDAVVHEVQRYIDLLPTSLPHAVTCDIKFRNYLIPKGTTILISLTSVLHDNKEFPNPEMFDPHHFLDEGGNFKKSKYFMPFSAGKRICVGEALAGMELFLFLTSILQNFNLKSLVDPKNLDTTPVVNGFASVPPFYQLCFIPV
Kind of series: Inhibition of human cytochromes, fluorescent substrates. Conditions: isoenzyme (Gentest), 37° C. In kind it is in vitro ADME. The procedure:
(§3) Experiment B: Inhibition of Human Cytochromes by Compounds of the Formula (I)
(§4) Inhibition of the enzymatic activity of the most significant isoforms of human cytochromes by the compounds of the formula (I) was measured by using specific substrates which become fluorescent as a result of the metabolic action of a particular cytochrome isoform. The individual isoenzymes (Gentest) and the respective substrates were incubated in 96 well plates in buffer containing […] at 37° C. in the presence or absence of the compound under investigation. […] The degree of inhibition of each individual isoenzyme by known inhibitors was also assessed as a positive control.

The next series concerns the target T2, CYP1A2 (Homo sapiens, UniProt P05177).
T2 construct: purchased Gentest
T2 sequence (P05177 1-516): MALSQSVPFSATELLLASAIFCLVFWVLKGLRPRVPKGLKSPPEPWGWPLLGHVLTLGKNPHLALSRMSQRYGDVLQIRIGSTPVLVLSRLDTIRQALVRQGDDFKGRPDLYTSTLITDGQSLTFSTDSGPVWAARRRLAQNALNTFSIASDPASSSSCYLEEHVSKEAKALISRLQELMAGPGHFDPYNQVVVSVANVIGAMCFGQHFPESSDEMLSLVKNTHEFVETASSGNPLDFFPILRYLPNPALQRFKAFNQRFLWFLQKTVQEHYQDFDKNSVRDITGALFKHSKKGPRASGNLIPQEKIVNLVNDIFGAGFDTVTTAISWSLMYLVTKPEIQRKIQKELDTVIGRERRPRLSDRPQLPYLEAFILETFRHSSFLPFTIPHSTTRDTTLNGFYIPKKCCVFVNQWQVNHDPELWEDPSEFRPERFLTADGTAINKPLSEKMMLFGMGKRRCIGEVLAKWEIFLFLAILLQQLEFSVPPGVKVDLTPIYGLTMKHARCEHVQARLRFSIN
Described as above. In kind it is in vitro ADME. Conditions: isoenzyme (Gentest), 37° C. The procedure: as §3, §4

A further series deals with T3, CYP2C19 (Homo sapiens, UniProt P33261).
T3 construct: purchased Gentest
T3 sequence (P33261 whole entry): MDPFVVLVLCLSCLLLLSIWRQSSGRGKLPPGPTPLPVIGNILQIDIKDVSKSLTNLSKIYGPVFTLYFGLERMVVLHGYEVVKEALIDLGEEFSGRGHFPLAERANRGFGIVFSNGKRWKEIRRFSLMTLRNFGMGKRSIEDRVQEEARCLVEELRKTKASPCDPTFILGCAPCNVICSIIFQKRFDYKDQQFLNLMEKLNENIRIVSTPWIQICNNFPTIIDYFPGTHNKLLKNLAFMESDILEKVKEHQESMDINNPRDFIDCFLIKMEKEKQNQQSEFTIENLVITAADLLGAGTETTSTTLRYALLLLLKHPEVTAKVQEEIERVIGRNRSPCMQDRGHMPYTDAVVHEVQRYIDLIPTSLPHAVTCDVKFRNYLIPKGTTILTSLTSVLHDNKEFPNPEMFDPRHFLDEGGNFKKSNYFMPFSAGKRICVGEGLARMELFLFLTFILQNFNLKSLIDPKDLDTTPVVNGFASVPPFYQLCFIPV
The description is as above. Conditions: isoenzyme (Gentest), 37° C. Format: in vitro ADME. The procedure: as §3, §4

The next series deals with T4, CYP2D6 (Homo sapiens, UniProt P10635).
T4 construct: purchased Gentest
T4 sequence (P10635 whole entry): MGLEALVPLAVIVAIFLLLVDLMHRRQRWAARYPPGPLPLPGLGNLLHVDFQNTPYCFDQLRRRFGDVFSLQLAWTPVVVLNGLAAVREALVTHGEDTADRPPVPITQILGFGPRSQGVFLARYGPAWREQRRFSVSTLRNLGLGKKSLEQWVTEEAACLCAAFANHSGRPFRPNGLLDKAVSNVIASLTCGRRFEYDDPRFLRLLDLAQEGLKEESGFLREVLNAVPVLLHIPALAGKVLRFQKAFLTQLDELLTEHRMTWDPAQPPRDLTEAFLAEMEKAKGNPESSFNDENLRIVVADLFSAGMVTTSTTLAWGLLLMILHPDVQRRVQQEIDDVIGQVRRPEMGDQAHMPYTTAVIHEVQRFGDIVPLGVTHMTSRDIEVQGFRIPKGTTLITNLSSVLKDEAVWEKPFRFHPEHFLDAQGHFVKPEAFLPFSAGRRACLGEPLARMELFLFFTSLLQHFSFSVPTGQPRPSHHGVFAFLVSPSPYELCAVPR
The description is as above. Conditions: isoenzyme (Gentest), 37° C. Format: in vitro ADME. As to the method:
as §3, §4

The target in another series is T5, CYP3A4 (Homo sapiens, UniProt P08684).
T5 construct: purchased Gentest
T5 sequence (P08684 whole entry): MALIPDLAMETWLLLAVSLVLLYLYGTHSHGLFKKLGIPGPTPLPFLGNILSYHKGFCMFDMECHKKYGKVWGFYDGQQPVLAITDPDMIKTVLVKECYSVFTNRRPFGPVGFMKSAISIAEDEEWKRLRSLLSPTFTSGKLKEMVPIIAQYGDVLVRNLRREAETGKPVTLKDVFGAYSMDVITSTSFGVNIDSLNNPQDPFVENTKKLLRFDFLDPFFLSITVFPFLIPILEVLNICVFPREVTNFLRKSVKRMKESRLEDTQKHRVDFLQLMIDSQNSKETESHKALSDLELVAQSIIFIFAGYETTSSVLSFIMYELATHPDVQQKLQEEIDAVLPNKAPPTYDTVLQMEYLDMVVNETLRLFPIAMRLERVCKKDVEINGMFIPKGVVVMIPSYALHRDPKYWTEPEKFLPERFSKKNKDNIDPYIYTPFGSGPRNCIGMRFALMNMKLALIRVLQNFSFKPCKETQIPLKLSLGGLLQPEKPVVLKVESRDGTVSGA
The series is described as above. In kind it is in vitro ADME. Conditions: isoenzyme (Gentest), 37° C. The procedure: as §3
The individual isoenzymes (Gentest) and the respective substrates were incubated in 96 well plates in buffer containing […] at 37° C. in the presence or absence of the compound under investigation. […] The degree of inhibition of each individual isoenzyme by known inhibitors was also assessed as a positive control.

The subject of series [2] is Candida albicans. Kind of series: Mouse model of systemic candidiasis, survival. In kind it is in vivo, CD1 mice. Conditions: 50 mg/kg/day orally (25 mg/kg twice daily) for 10 days. As to the method: Experiment C: Study of the Efficacy of Compounds of the Formula (I) in a Mouse Model of Systemic Candidiasis.
The C. albicans isolate was cultured for 24 h in yeast dextrose broth. The blastospores were recovered by centrifugation, repeatedly washed in sterile saline solution and the inoculum adjusted to the desired concentration. The inoculum was verified by a subsequent count of CFU/ml on Sabouraud plates.
The mice were then inoculated intravenously (0.2 ml/mouse).
24 hours after inoculation with C. albicans, the animals were randomised into the following treatment groups (10 mice/group): • 1. […] Compound under investigation: 50 mg/kg/day (two 25 mg/kg treatments twice daily at 12 hour intervals) • 3. Compound under investigation; 10 mg/kg/day (two 5 mg/kg treatments twice daily at 12 hour intervals) • 4. Control (placebo)
The compounds were administered orally (suspension in PEG 200, 0.2 ml/mouse) for 10 consecutive days and the animals were observed until day 30. The survival curves between the various treatment groups and between these groups and the control group were evaluated using the Kaplan-Meier method.

The mark [3] stands for this setting: Aspergillus fumigatus strain 34.
Where [4] appears, read: Aspergillus fumigatus strain 99-2135.

`CCC(C)n1ncn(-c2ccc(N3CCN(c4ccc(OCC5COC(Cn6cncn6)(c6cccc[n+]6[O-])O5)cc4)CC3)cc2)c1=O` (racemic) [Example 17, cis(±)-4-{4-[4-{4-[2-(1-oxy-pyridin-2-yl)-2-(1H-1,2,4-triazol-1-yl-methyl)-1,3dioxolan-4-yl-methoxy]phenyl}piperazin-1-yl]-phenyl}-2-[(1,R/S)-1-methylpropyl]-2,4-dihydro-3H-1,2,4-triazol-3-one]: the “IC50 (minimum concentration to bring about 50% inhibition)” value was 38000 µg/mL (≈ 58100 µM) in the series with Candida albicans [1] (Candida albicans strain 21) and more than 64 in the series on Aspergillus fumigatus (setting [3]).

`CCC(C)n1ncn(-c2ccc(N3CCN(c4ccc(OCC5COC(Cn6cncn6)(c6cc[n+]([O-])cc6)O5)cc4)CC3)cc2)c1=O` (racemic) [Example 18, cis(±)-4-{4-[4-{4-[2-(1-oxy-pyridin-4-yl)-2-(1H-1,2,4-triazol-1-yl-methyl)-1,3-dioxolan-4-yl-methoxy]phenyl}piperazin-1-yl]phenyl}-2-[(1,R/S)-1-methylpropyl]-2,4-dihydro-3H-1,2,4-triazol-3-one]: the “IC50 (minimum concentration to bring about 50% inhibition)” value with Candida albicans [1] (Candida albicans strain 21) came out at 78000 µg/mL (≈ 119000 µM).

`CC[C@H](C)n1ncn(-c2ccc(N3CCN(c4ccc(OC[C@H]5CO[C@@](Cn6cncn6)(c6ccccn6)O5)cc4)CC3)cc2)c1=O` (relative stereo) [Example 13, cis(−)-4-{4-[4-{4-[2-(pyridin-2-yl)-2-(1H-1,2,4-triazol-1-yl-methyl)-1,3-dioxolan-4-yl-methoxy]phenyl}piperazin-1-yl]-phenyl}-2-[(1,S)-1-methylpropyl]-2,4-dihydro-3H-1,2,4-triazol-3-one]: the “IC50 (minimum concentration to bring about 50% inhibition)” value was 1000 µg/mL (≈ 1570 µM) in the series on Candida glabrata, “≦0.03 mg/ml” in the series with Candida albicans [1] (Candida albicans strain gen-45), “≦0.03 mg/ml” with Candida parapsilosis and 0.25 with Aspergillus fumigatus (setting [4]). The IC50 against CYP2C9 is 27.2 ± 6.7 µM; against CYP1A2 it was more than 100 µM; against CYP2C19 it was 28.4 ± 8.8 µM; against CYP2D6, more than 100 µM; at CYP3A4, 0.46 ± 0.37 µM.

As to `CC[C@H](C)n1ncn(-c2ccc(N3CCN(c4ccc(OC[C@H]5CO[C@@](Cn6cncn6)(c6ccccn6)O5)cc4)CC3)cc2)c1=O` (relative stereo) [Example 14, cis(+)-4-{4-[4-{4-[2-(pyridin-2-yl)-2-(1H-1,2,4-triazol-1-yl-methyl)-1,3-dioxolan-4-yl-methoxy]phenyl}piperazin-1-yl]-phenyl}-2-[(1,S)-1-methylpropyl]-2,4-dihydro-3H-1,2,4-triazol-3-one], the “IC50 (minimum concentration to bring about 50% inhibition)” value was 2000 µg/mL (≈ 3140 µM) with Candida glabrata, “≦0.03 mg/ml” in the series with Candida albicans [1] (Candida albicans strain gen-45), 0.06 with Candida parapsilosis and 0.5 in the series with Aspergillus fumigatus (setting [4]). For the same molecule, the IC50 against CYP2C9 is 40 ± 11.2 µM; at CYP1A2, more than 100 µM; on CYP2C19, 27.9 ± 0.8 µM; on CYP2D6 it was more than 100 µM; against CYP3A4, 0.19 ± 0.08 µM.

As to `CC[C@@H](C)n1ncn(-c2ccc(N3CCN(c4ccc(OC[C@H]5CO[C@@](Cn6cncn6)(c6ccccn6)O5)cc4)CC3)cc2)c1=O` (relative stereo) [Example 15, cis(−)-4-{4-[4-{4-[2-(pyridin-2-yl)-2-(1H-1,2,4-triazol-1-yl-methyl)-1,3-dioxolan-4-yl-methoxy]phenyl}piperazin-1-yl]-phenyl}-2-[(1,R)-1-methylpropyl]-2,4-dihydro-3H-1,2,4-triazol-3-one], the “IC50 (minimum concentration to bring about 50% inhibition)” value in the series on Candida glabrata was 250 µg/mL (≈ 392 µM); in the series with Candida albicans [1] (Candida albicans strain gen-45) it was “≦0.03 mg/ml”; in the series on Candida parapsilosis, “≦0.03 mg/ml”; in the series with Aspergillus fumigatus (setting [4]), 0.12. For the same molecule, the IC50 against CYP2C9 was 26.1 ± 1.3 µM; at CYP1A2, more than 100 µM; on CYP2C19, 25.5 ± 4.3 µM; at CYP2D6, 84 ± 39.4 µM; against CYP3A4, 0.41 ± 0.13 µM.

Regarding `CC[C@@H](C)n1ncn(-c2ccc(N3CCN(c4ccc(OC[C@H]5CO[C@@](Cn6cncn6)(c6ccccn6)O5)cc4)CC3)cc2)c1=O` (relative stereo) [Example 16, cis(+)-4-{4-[4-{4-[2-(pyridin-2-yl)-2-(1H-1,2,4-triazol-1-yl-methyl)-1,3-dioxolan-4-yl-methoxy]phenyl}piperazin-1-yl]-phenyl}-2-[(1,R)-1-methylpropyl]-2,4-dihydro-3H-1,2,4-triazol-3-one], the “IC50 (minimum concentration to bring about 50% inhibition)” value in the series with Candida glabrata was 500 µg/mL (≈ 784 µM); in the series with Candida albicans [1] (Candida albicans strain gen-45), “≦0.03 mg/ml”; in the series with Candida parapsilosis, 0.06; with Aspergillus fumigatus (setting [4]), 0.25. Further, the IC50 against CYP2C9 was 37.5 ± 6.8 µM; at CYP1A2, more than 100 µM; at CYP2C19, 43.1 ± 15 µM; against CYP2D6, more than 100 µM; on CYP3A4 it was 0.29 ± 0.01 µM.

Turning to `CCC(C)n1ncn(-c2ccc(N3CCN(c4ccc(OCC5COC(Cn6cncn6)(c6ccc(Cl)cc6Cl)O5)cc4)CC3)cc2)c1=O` (stereo not shown) [Itraconazole, reference compound], the IC50 in the series with Candida glabrata (Nakaseomyces glabratus, read-out: IC50 (minimum concentration to bring about 50% inhibition)) was 500 µg/mL (≈ 709 µM); in the series on Candida albicans [1] (Candida albicans, read-out: IC50 (minimum concentration to bring about 50% inhibition)), not above 30 µg/mL; in the series on Candida parapsilosis (Lodderomyces parapsilosis, ATCC22019, read-out: IC50 (minimum concentration to bring about 50% inhibition)), 120 µg/mL (≈ 170 µM); with Aspergillus fumigatus (read-out: IC50 (minimum concentration to bring about 50% inhibition), Aspergillus fumigatus strain 34) it was 1000 µg/mL (≈ 1420 µM); in the series on Aspergillus fumigatus (read-out: IC50 (minimum concentration to bring about 50% inhibition), Aspergillus fumigatus strain 99-2135), 250 µg/mL (≈ 354 µM); against CYP2C9, 1.6 ± 0.2 µM. Further, the IC50 was more than 100 µM against CYP1A2, 0.2 ± 0.06 µM at CYP2C19 and more than 100 µM against CYP2D6. Moreover, the “Surviving mice 21 days after infection” value in the series with Candida albicans [2] was 0%. In addition, in the series on Candida albicans [2] (observed until day 30), the “Average survival (days) ± S.D.” value was found to be 9.2 ± 1.1 days.

Turning to “cis(±)-4-{4-[4-{4-[2-(pyridin-3-yl)-2-(1H-1,2,4-triazol-1-yl-methyl)-1,3-dioxolan-4-yl-methoxy]phenyl}-1-piperazinyl]-phenyl}-2-(1-(R,S)methylpropyl)-2,4-dihydro-3H-1,2,4-triazol-3-one [Example 11]”, the results for the IC50 at CYP2C9, at CYP2C19 and at CYP3A4 were 64.2 ± 6.2 µM, 31.5 ± 3.9 µM and 0.7 ± 0.1 µM, respectively.

With “cis(±)-4-{4-[4-{4-[2-(pyridin-4-yl)-2-(1H-1,2,4-triazol-1-yl-methyl)-1,3-dioxolan-4-yl-methoxy]phenyl}-1-piperazinyl]-phenyl}-2-(1-(R,S)methylpropyl)-2,4-dihydro-3H-1,2,4-triazol-3-one [Example 10]”, the “IC50 (minimum concentration to bring about 50% inhibition)” value was found to be 39000 µg/mL in the series with Candida albicans [1] (Candida albicans strain 21) and 8 with Aspergillus fumigatus (setting [3]).

Take “cis(±)-4-{4-[4-{4-[2-(thiazol-2-yl)-2-(1H-1,2,4-triazol-1-yl-methyl)-1,3-dioxolan-4-yl-methoxy]phenyl}-1-piperazinyl]-phenyl}-2-(1-(R,S)methylpropyl)-2,4-dihydro-3H-1,2,4-triazol-3-one [Example 12]”: the IC50 against CYP2C9 came out at 18.2 ± 0.3 µM; at CYP2C19, 10.9 ± 0.4 µM; against CYP3A4 it was 0.3 ± 0.1 µM.
